Experimental data: the supplement of paper PMC10307832

How the values were obtained:
Assay in all cases: relative viability (nuclei count vs DMSO), 5 days (fraction); higher = more cells survive
Cabozantinib + Foretinib = compound: COc1cc2nccc(Oc3ccc(NC(=O)C4(C(=O)Nc5ccc(F)cc5)CC4)cc3)c2cc1OC [Cabozantinib] + COc1cc2c(Oc3ccc(NC(=O)C4(C(=O)Nc5ccc(F)cc5)CC4)cc3F)ccnc2cc1OCCCN1CCOCC1 [Foretinib] (partner 0.25 µM)
In short: (§1)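 A single step with final 0.05% Triton X-100, 1% formaldehyde and 1 ug/ml Hoechst fixed the cells and stained nuclei 5 days after treatment. Lung cancer cell lines in 1536-well plates had been treated by pin tool the day after seeding with one drug alone or a fixed anchor-drug dose plus five library-drug doses (not always all listed) in √10 steps, and nuclei were counted on 4× images. Relative viability is the ratio of nuclei in treated wells to nuclei in vehicle wells, taken as the median of duplicate plates.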

[1] = compound: COc1cc2nccc(Oc3ccc(NC(=O)C4(C(=O)Nc5ccc(F)cc5)CC4)cc3)c2cc1OC [Cabozantinib] + Nc1nc2[nH]cc(CCc3ccc(C(=O)N[C@@H](CCC(=O)O)C(=O)O)cc3)c2c(=O)[nH]1 [Pemetrexed] (partner 0.2 µM)
In short: as §1

Zosuquidar + Dasatinib = compound: O[C@@H](COc1cccc2ncccc12)CN1CCN([C@@H]2c3ccccc3[C@@H]3[C@H](c4ccccc42)C3(F)F)CC1 [Zosuquidar] + Cc1nc(Nc2ncc(C(=O)Nc3c(C)cccc3Cl)s2)cc(N2CCN(CCO)CC2)n1 [Dasatinib] (partner 0.075 µM)
In short: as §1

Zosuquidar + Pemetrexed = compound: O[C@@H](COc1cccc2ncccc12)CN1CCN([C@@H]2c3ccccc3[C@@H]3[C@H](c4ccccc42)C3(F)F)CC1 [Zosuquidar] + Nc1nc2[nH]cc(CCc3ccc(C(=O)N[C@@H](CCC(=O)O)C(=O)O)cc3)c2c(=O)[nH]1 [Pemetrexed] (partner 0.2 µM)
In short: as §1

Cell Line | relative viability (Cabozantinib + Foretinib; first compound 0.02 µM) | relative viability (Cabozantinib + Foretinib; first compound 0.06325 µM) | relative viability (Cabozantinib + Foretinib; first compound 0.2 µM) | relative viability (Cabozantinib + Foretinib; first compound 0.6325 µM) | relative viability (Cabozantinib + Foretinib; first compound 2 µM) | relative viability ([1]; first compound 0.02 µM) | relative viability ([1]; first compound 0.06325 µM) | relative viability ([1]; first compound 0.2 µM) | relative viability ([1]; first compound 0.6325 µM) | relative viability ([1]; first compound 2 µM) | relative viability (Zosuquidar + Dasatinib; first compound 0.01 µM) | relative viability (Zosuquidar + Dasatinib; first compound 0.03162 µM) | relative viability (Zosuquidar + Dasatinib; first compound 0.1 µM) | relative viability (Zosuquidar + Dasatinib; first compound 0.3162 µM) | relative viability (Zosuquidar + Dasatinib; first compound 1 µM) | relative viability (Zosuquidar + Pemetrexed; first compound 0.01 µM) | relative viability (Zosuquidar + Pemetrexed; first compound 0.03162 µM) | relative viability (Zosuquidar + Pemetrexed; first compound 0.3162 µM) | relative viability (Zosuquidar + Pemetrexed; first compound 1 µM) | relative viability (Zosuquidar + Pemetrexed; first compound 0.1 µM)
EBC-1 | 0.101 | 0.104 | 0.0976 | 0.0898 | 0.114 | – | – | – | – | – | – | – | – | – | – | – | – | – | – | –
EKVX | 0.77 | 0.862 | 0.81 | 0.536 | 0.852 | 0.376 | 0.477 | 0.352 | 0.467 | 0.461 | 0.694 | 0.38 | 0.558 | 0.657 | 0.488 | 0.373 | 0.392 | 0.435 | 0.444 | –
EMC-BAC-2 | 1.02 | 0.973 | 1.04 | 0.982 | 0.962 | 0.47 | 0.456 | 0.529 | 0.456 | 0.449 | 0.325 | 0.34 | 0.373 | 0.339 | 0.325 | 0.459 | 0.417 | 0.457 | 0.335 | 0.441
EPLC-272H | 0.77 | 0.884 | 0.515 | 0.82 | 0.782 | 0.368 | 0.37 | 0.301 | 0.318 | 0.282 | 0.381 | 0.316 | 0.331 | 0.325 | 0.389 | 0.376 | 0.317 | 0.404 | 0.363 | 0.357
H3255 | 0.773 | 1.01 | – | 0.979 | 1.07 | 0.52 | 0.646 | – | 0.57 | 0.575 | 0.346 | 0.273 | 0.341 | 0.727 | 0.303 | 0.574 | 0.569 | 0.574 | 0.535 | 0.506
HARA | 1.04 | 1.02 | 0.711 | 0.949 | 0.691 | 0.244 | 0.234 | – | 0.279 | 0.226 | 0.252 | – | 0.26 | 0.257 | 0.27 | 0.259 | 0.234 | 0.31 | 0.277 | 0.247
HCC-15 | 1.26 | 1.13 | 1.06 | 1.04 | 1.07 | 0.231 | 0.228 | 0.226 | 0.223 | 0.215 | 0.559 | 0.581 | 0.592 | 0.663 | 0.612 | 0.209 | 0.218 | 0.219 | 0.236 | 0.255
HCC-44 | – | – | – | – | – | 0.659 | 0.609 | 0.735 | 0.701 | 0.724 | – | – | – | – | – | 0.613 | 0.708 | 0.618 | 0.632 | 0.663
HCC-78 | – | 0.684 | 0.549 | 0.541 | 0.518 | – | 0.941 | 0.908 | 0.926 | 0.89 | 0.553 | 0.386 | – | 0.331 | 0.254 | 0.92 | – | 0.906 | 0.827 | –
